This assay concerns the target LRRK2 G2019S (Homo sapiens (Human), UniProt Q5S007, G2019S). Put plainly: In Vitro LRRK2 Lanthascreen Binding Assay. How it is done:
In Vitro LRRK2 Lanthascreen Binding Assay
This assay was used to determine a compound's potency in inhibiting activity of LRRK2 by determining, Kiapp, IC50, or percent inhibition values. In 384 well proxiplates F black, shallow well plates LRRK2, Eu-anti-GST-antibody, Alexa Fluor® Kinase tracer 236 and test compound were incubated together.
Binding of the Alexa Fluor® “tracer” to a kinase is detected by addition of a Eu-labeled anti-GST antibody. Binding of the tracer and antibody to a kinase results in a high degree of FRET, whereas displacement of the tracer with a kinase inhibitor results in a loss of FRET.
Assay conditions and materials used were as follows:
Final Assay Conditions: • GST-LRRK2 G2019S 10 nM
Eu-anti-GST-antibody 2 nM • Kinase tracer 236 8.5 nM • Kinase reaction time: 1 hour • Temperature: ambient • Total volume: 15 μl • DMSO 1%
384 well proxiplates F black shallow well Perkin Elmer cat #6008260
Eu-labeled anti-GST antibody Invitrogen cat # PV5594
Alexa Fluor® Kinase tracer 236 Invitrogen cat #PV5592 • TRIS-HCl Sigma cat # T3253 • EGTA Sigma cat # E3889 • Brij-35: Sigma cat # B4184 (30% w/v) • DMSO: Sigma cat # D8418 • MgCl2 Sigma cat # M9272
Reaction Buffer: H2O/50 mM Tris, pH 7.4/10 mM MgCl2/1 mM EGTA/0.01% Brij 35
Compound Plate Preparation:
Serially dilute test compounds (10 mM stock) 1:3.16 (20 ul+43.2 ul) in 100% DMSO. 12 pt curve. Dilute each concentration 1:33.3 (3 ul+97 ul) in reaction buffer. Stamp 5 ul to assay plate. Final top test concentration 100 uM
Total and Blank Preparation:
In Reaction Buffer, 5 ul of DMSO (3%) was added to total and blank wells and 5 ul of Eu-labeled anti-GST antibody (6 nM) was added to blank wells. Add 5 ul LRRK2 (30 nM)/Eu-labeled anti-GST antibody (6 nM) mix to compound and total wells.
Add 5 ul kinase tracer (25.5 nM) to all wells. Incubate plates at room temperature for 1 hour on a plate shaker (gentle shaking). Read on Perkin Elmer EnVision reader HTRF protocol
Calculate ratio: (665/620)*10000. Subtract mean background values from all data points. Calculate % of control for each test value. Plot % of control vs Compound concentration. Calculate Ki Value (xlfit curve fitting—Morrison equation). Results expressed as a Ki in μM. Equation for Ki: Y=V0*(1−((x+Ki*(1+S/Km)+Et)/(2*Et)−(((x+Ki*(1+S/Km)+Et)^2−(4*Et*x))^0.5)/(2*Et)))
Tracer concentration (S)=8.5 nM

Sequence of LRRK2 G2019S (Q5S007 whole entry G2019S): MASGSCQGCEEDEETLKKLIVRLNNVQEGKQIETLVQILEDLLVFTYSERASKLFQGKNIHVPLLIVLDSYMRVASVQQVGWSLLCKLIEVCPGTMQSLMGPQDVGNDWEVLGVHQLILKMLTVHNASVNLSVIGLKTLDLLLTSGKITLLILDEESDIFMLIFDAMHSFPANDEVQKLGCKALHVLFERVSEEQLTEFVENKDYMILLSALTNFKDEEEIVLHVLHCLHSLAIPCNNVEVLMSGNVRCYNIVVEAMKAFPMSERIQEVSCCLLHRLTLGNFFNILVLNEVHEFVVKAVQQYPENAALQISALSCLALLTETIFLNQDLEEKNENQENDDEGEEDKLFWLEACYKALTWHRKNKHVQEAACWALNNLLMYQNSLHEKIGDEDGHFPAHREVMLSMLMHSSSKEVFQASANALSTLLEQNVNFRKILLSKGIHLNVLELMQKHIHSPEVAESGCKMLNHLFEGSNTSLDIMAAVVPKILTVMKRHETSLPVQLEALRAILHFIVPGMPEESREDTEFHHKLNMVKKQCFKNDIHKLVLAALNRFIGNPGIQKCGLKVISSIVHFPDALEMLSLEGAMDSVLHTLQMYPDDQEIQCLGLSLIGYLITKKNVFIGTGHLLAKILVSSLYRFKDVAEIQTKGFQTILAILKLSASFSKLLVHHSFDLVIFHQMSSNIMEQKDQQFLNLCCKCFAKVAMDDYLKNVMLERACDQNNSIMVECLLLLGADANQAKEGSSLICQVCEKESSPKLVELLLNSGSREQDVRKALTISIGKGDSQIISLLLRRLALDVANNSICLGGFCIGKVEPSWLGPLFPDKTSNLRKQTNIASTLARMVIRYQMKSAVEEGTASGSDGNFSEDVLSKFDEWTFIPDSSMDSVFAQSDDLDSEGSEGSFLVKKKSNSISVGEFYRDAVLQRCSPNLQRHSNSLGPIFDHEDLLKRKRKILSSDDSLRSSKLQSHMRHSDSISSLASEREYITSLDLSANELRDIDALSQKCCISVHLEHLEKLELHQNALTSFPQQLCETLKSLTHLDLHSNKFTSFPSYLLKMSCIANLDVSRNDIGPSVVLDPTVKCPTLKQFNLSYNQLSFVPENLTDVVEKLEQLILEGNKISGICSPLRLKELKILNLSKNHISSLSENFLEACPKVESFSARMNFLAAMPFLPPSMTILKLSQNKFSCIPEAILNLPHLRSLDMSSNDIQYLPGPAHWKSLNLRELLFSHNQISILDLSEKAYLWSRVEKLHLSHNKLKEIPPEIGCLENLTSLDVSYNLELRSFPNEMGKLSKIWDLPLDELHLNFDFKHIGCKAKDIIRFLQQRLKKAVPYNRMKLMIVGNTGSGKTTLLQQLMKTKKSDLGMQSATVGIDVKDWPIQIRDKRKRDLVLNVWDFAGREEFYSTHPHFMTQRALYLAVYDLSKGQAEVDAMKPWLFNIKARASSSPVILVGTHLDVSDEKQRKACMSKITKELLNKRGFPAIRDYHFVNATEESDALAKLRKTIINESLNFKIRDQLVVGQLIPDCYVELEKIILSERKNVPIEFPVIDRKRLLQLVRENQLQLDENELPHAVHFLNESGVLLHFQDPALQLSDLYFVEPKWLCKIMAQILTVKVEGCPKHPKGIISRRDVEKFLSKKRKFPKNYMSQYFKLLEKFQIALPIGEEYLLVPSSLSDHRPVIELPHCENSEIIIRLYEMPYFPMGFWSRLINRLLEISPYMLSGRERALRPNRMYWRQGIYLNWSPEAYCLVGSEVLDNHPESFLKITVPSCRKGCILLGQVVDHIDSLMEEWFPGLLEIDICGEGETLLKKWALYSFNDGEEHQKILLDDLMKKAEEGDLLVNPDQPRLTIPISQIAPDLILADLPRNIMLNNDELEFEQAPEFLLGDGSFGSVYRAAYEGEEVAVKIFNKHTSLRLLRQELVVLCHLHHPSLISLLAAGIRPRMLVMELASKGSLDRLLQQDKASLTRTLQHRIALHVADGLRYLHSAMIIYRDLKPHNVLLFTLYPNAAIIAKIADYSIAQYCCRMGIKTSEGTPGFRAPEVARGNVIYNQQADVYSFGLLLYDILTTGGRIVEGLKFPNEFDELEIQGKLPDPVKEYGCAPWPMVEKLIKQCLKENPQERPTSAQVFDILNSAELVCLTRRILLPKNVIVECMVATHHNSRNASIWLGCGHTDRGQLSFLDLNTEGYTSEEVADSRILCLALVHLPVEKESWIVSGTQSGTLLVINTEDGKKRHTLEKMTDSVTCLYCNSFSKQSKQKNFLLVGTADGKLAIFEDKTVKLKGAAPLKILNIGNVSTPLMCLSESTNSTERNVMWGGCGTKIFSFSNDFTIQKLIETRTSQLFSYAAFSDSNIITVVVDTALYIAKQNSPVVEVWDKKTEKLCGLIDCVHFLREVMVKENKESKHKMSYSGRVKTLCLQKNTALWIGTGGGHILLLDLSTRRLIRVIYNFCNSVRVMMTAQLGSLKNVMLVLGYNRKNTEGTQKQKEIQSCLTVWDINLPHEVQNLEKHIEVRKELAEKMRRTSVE

With `CNc1nc(Nc2cnn3c2C(C)OC(C)C3)ncc1C(F)(F)F` (single isomer, unassigned) [Example 19, N2-(4,6-dimethyl-6,7-dihydro-4H-pyrazolo[5,1-c][1,4]oxazin-3-yl)-N4-methyl-5-(trifluoromethyl)pyrimidine-2,4-diamine], the Ki – broadly, a dissociation constant, usually derived from enzyme kinetics or from competition with a known ligand – is 0.0613 µM. `CCNc1nc(Nc2cnn3c2C(C)OCC3)ncc1C(F)(F)F` (stereo not shown) [Example 13, N4-ethyl-N2-(4-methyl-6,7-dihydro-4H-pyrazolo[5,1-c][1,4]oxazin-3-yl)-5-(trifluoromethyl)pyrimidine-2,4-diamine] gave a Ki of 0.0477 µM.

Take `CNc1nc(Nc2cnn3c2[C@@H](C)N(C)CC3)ncc1C(F)(F)F` [Example 6, (R)-N2-(4,5-dimethyl-4,5,6,7-tetrahydropyrazolo[1,5-a]pyrazin-3-yl)-N4-methyl-5-(trifluoromethyl)pyrimidine-2,4-diamine]: the Ki stood at 0.184 µM. In the case of `C[C@@H]1c2c(Nc3ncc(C(F)(F)F)c(NC4CC4)n3)cnn2CCN1C` [Example 10, (R)-N4-cyclopropyl-N2-(4,5-dimethyl-4,5,6,7-tetrahydropyrazolo[1,5-a]pyrazin-3-yl)-5-(trifluoromethyl)pyrimidine-2,4-diamine], the Ki stood at 0.0444 µM. For `CNc1nc(Nc2cnn3c2COC(C)(C)C3)ncc1C(F)(F)F` [Example 22, N2-(6,6-dimethyl-6,7-dihydro-4H-pyrazolo[5,1-c][1,4]oxazin-3-yl)-N4-methyl-5-(trifluoromethyl)pyrimidine-2,4-diamine], the affinity corresponds to a Ki of 0.0009 µM. For `CNc1nc(Nc2cnn3c2C(C)OCC3(C)C)ncc1C(F)(F)F` (stereo not shown) [Example 11, N4-methyl-5-(trifluoromethyl)-N2-(4,7,7-trimethyl-6,7-dihydro-4H-pyrazolo[5,1-c][1,4]oxazin-3-yl)pyrimidine-2,4-diamine], the affinity, expressed as Ki, was 0.212 µM. Compound `CCNc1nc(Nc2cnn3c2COC(C)(C)C3)ncc1C(F)(F)F` [Example 23, N2-(6,6-dimethyl-6,7-dihydro-4H-pyrazolo[5,1-c][1,4]oxazin-3-yl)-N4-ethyl-5-(trifluoromethyl)pyrimidine-2,4-diamine] gave a Ki of 0.0003 µM. Turning to `CNc1nc(Nc2cnn3c2C(C)OCC3(C)C)ncc1C(F)(F)F` (single isomer, unassigned) [Example 12, N4-methyl-5-(trifluoromethyl)-N2-(4,7,7-trimethyl-6,7-dihydro-4H-pyrazolo[5,1-c][1,4]oxazin-3-yl)pyrimidine-2,4-diamine], the Ki was determined as 0.0026 µM. Take `CNc1nc(Nc2cnn3c2C(C)OCC3)ncc1C(F)(F)F` (single isomer, unassigned) [Example 16, N4-methyl-N2-(4-methyl-6,7-dihydro-4H-pyrazolo[5,1-c][1,4]oxazin-3-yl)-5-(trifluoromethyl)pyrimidine-2,4-diamine]: the Ki was 0.003 µM. Take `CNc1nc(Nc2cnn3c2C(C)OCC3)ncc1C(F)(F)F` (stereo not shown) [Example 15, N4-methyl-N2-(4-methyl-6,7-dihydro-4H-pyrazolo[5,1-c][1,4]oxazin-3-yl)-5-(trifluoromethyl)pyrimidine-2,4-diamine]: the inhibition constant (Ki) turned out to be 0.279 µM. Take `CNc1nc(Nc2cnn3c2CN(C)CC3)ncc1C(F)(F)F` [Example 26, N^4-methyl-N^2-(5-methyl-4,5,6,7-tetrahydropyrazolo[1,5-a]pyrazin-3-yl)-5-(trifluoromethyl)pyrimidine-2,4-diamine]: the Ki turned out to be 0.0335 µM. For the compound `CNc1nc(Nc2cnn3c2CCCC3)ncc1C(F)(F)F` [Example 3, N4-methyl-N2-(4,5,6,7-tetrahydropyrazolo[1,5-a]pyridin-3-yl)-5-(trifluoromethyl)pyrimidine-2,4-diamine], the Ki is 0.0075 µM. With `CNc1nc(Nc2cnn3c2COCC3)ncc1C(F)(F)F` [Example 17, N2-(6,7-dihydro-4H-pyrazolo[5,1-c][1,4]oxazin-3-yl)-N4-methyl-5-(trifluoromethyl)pyrimidine-2,4-diamine], the Ki was 0.0023 µM. Consider `CCNc1nc(Nc2cnn3c2C(C)OCC3)ncc1C(F)(F)F` (single isomer, unassigned) [Example 14, N4-ethyl-N2-(4-methyl-6,7-dihydro-4H-pyrazolo[5,1-c][1,4]oxazin-3-yl)-5-(trifluoromethyl)pyrimidine-2,4-diamine], for which affinity was put at a Ki of 0.0012 µM. In turn, `CNc1nc(Nc2cnn3c2C(C)OC(C)C3)ncc1C(F)(F)F` (single isomer, unassigned) [Example 21, N2-(4,6-dimethyl-6,7-dihydro-4H-pyrazolo[5,1-c][1,4]oxazin-3-yl)-N4-methyl-5-(trifluoromethyl)pyrimidine-2,4-diamine] returned a Ki of 0.39 µM.

Turning to `CCNc1nc(Nc2cnn3c2[C@@H](C)N(C)CC3)ncc1C(F)(F)F` [Example 8, (R)-N2-(4,5-dimethyl-4,5,6,7-tetrahydropyrazolo[1,5-a]pyrazin-3-yl)-N4-ethyl-5-(trifluoromethyl)pyrimidine-2,4-diamine], the affinity, expressed as Ki, was 0.144 µM. Turning to `CNc1nc(Nc2cnn3c2C(C)OC(C)C3)ncc1C(F)(F)F` (single isomer, unassigned) [Example 20, N2-(4,6-dimethyl-6,7-dihydro-4H-pyrazolo[5,1-c][1,4]oxazin-3-yl)-N4-methyl-5-(trifluoromethyl)pyrimidine-2,4-diamine], the Ki came out at 0.0057 µM. Then `CNc1nc(Nc2cnn3c2[C@H](C)N(C)CC3)ncc1C(F)(F)F` [Example 5, (S)-N2-(4,5-dimethyl-4,5,6,7-tetrahydropyrazolo[1,5-a]pyrazin-3-yl)-N4-methyl-5-(trifluoromethyl)pyrimidine-2,4-diamine], with 0.02 µM; and `CNc1nc(Nc2cnn3c2N(C)CC3)ncc1C(F)(F)F` [Example 25, N4-methyl-N2-(1-methyl-2,3-dihydro-1H-imidazo[1,2-b]pyrazol-7-yl)-5-(trifluoromethyl)pyrimidine-2,4-diamine], with 0.0312 µM; and `CNc1nc(Nc2cc3n(n2)CCOC3)ncc1C(F)(F)F` [Example 30, N^2-(6,7-dihydro-4H-pyrazolo[5,1-c][1,4]oxazin-2-yl)-N^4-methyl-5-(trifluoromethyl)pyrimidine-2,4-diamine], with 0.0109 µM. Then `C[C@H]1c2c(Nc3ncc(C(F)(F)F)c(NC4CC4)n3)cnn2CCN1C` [Example 9, (S)-N4-cyclopropyl-N2-(4,5-dimethyl-4,5,6,7-tetrahydropyrazolo[1,5-a]pyrazin-3-yl)-5-(trifluoromethyl)pyrimidine-2,4-diamine], with 0.0049 µM; and `CCNc1nc(Nc2cnn3c2[C@H](C)N(C)CC3)ncc1C(F)(F)F` [Example 7, (S)-N2-(4,5-dimethyl-4,5,6,7-tetrahydropyrazolo[1,5-a]pyrazin-3-yl)-N4-ethyl-5-(trifluoromethyl)pyrimidine-2,4-diamine], with 0.0095 µM; and `CNc1nc(Nc2cnn3c2CCC3)ncc1C(F)(F)F` [Example 24, N2-(5,6-dihydro-4H-pyrrolo[1,2-b]pyrazol-3-yl)-N4-methyl-5-(trifluoromethyl)pyrimidine-2,4-diamine], with 0.0006 µM. `CNc1nc(Nc2cnn3c2C2(COC2)OCC3)ncc1C(F)(F)F` [Example 27, N^2-(6′7′-dihydrospiro[oxetane-3,4′-pyrazolo[5,1-c][1,4]oxazine]-3-yl)-N^4-methyl-5-(trifluoromethyl)pyrimidine-2,4-diamine] gave a Ki of 0.819 µM. With `CNc1nc(Nc2cnn3c2C(C)OC(C)C3)ncc1C(F)(F)F` (stereo not shown) [Example 18, N2-(4,6-dimethyl-6,7-dihydro-4H-pyrazolo[5,1-c][1,4]oxazin-3-yl)-N4-methyl-5-(trifluoromethyl)pyrimidine-2,4-diamine] the figure was 0.0018 µM.
